System: human monocyte stimulated cytokine production (TNF-α)
Experiment: Monocyte assay (LPS-stimulated TNF-α production)
Type: cell-based
Settings: for inhibition at 0.3 µM: 300 nM, human monocytes, LPS; for IC50: human CD14+ monocytes, 200 ng/mL LPS, 24 hrs, values given as 'about', read-out: pIC50 in the monocyte assay (converted)
Procedure: Effect of IKK-β inhibition on human monocyte stimulated cytokine production was assessed as follows: Monocytes were isolated from heparinized whole blood by Ficoll gradient, followed by purification of CD14+ cells using MACS magnetic cell separation beads. Isolated monocytes were then adhered to 96-well culture plates at 1×10^6 cells/mL in RPMI 1640 10% FBS (JRH Biosciences, Lenexa Kans.) for 2 h. Test compounds are added to the wells 30 minutes prior to stimulation with a final vehicle concentration of 0.1% DMSO. Monocytes were activated by the addition of 200 ng/mL endotoxin (LPS; E. coli serotype 026:B6) (Sigma, St. Louis, Mo.) and incubated for 24 hrs at 37 C. Cell-free supernates were analyzed by Alphascreen™ (Perkin Elmer, Waltham, Mass.) for TNF-α using R&D Systems matched pair Abs. Viability of the cells was determined by 10% trypan blue exclusion.

Which inhibition at 0.3 µM does the source give for `NC(=O)c1cc(-c2cccs2)cc2c(C3CCCS(=O)(=O)C3)c[nH]c12` (stereo not drawn) [Example 222, 3-(1,1-Dioxidotetrahydro-2H-thiopyran-3-yl)-5-(2-thienyl)-1H-indole-7-carboxamide] here?
Its inhibition at 0.3 µM is 0 to 100%.

For `CN(C)Cc1cc(-c2cc(C(N)=O)c3[nH]cc(C4CCS(=O)(=O)C(C)(C)C4)c3c2)cs1` (stereo not drawn) [Example 232, 5-{5-[(Dimethylamino)methyl]-3-thienyl}-3-(2,2-dimethyl-1,1-dioxidotetrahydro-2H-thiopyran-4-yl)-1H-indole-7-carboxamide], which IC50 is on record?
The IC50 was 5.01 to 1000 nM.

Which IC50 does the source give for `NC(=O)c1cc(-c2ccco2)cc2c(C3CCS(=O)(=O)C3)c[nH]c12` (stereo not drawn) [Example 188, 3-(1,1-Dioxidotetrahydro-3-thienyl)-5-(2-furanyl)-1H-indole-7-carboxamide] here?
Its IC50 is 5.01 to 1000 nM.

With `CC1(C)CC(c2c[nH]c3c(C(N)=O)cc(-c4ccccc4)cc23)CCS1(=O)=O` (stereo not drawn) [Example 226, 3-(2,2-Dimethyl-1,1-dioxidotetrahydro-2H-thiopyran-4-yl)-5-phenyl-1H-indole-7-carboxamide] as the compound, how does the IC50 read?
Its IC50 is 5.01 to 1000 nM.

Which IC50 does the source give for `NC(=O)c1cc(-c2ccc3c(c2)CCO3)cc2c(C3CCS(=O)(=O)CC3)c[nH]c12` [Example 69, 5-(2,3-Dihydro-1-benzofuran-5-yl)-3-(1,1-dioxidotetrahydro-2H-thiopyran-4-yl)-1H-indole-7-carboxamide] here?
Its IC50 is 5.01 to 1000 nM.

`NC(=O)c1cc(-c2ccccc2)cc2c(CC3CCS(=O)(=O)C3)c[nH]c12` (stereo not drawn) [Example 259, 3-[(1,1-Dioxidotetrahydro-3-thienyl)methyl]-5-phenyl-1H-indole-7-carboxamide] was tested. Which IC50 did it give?
The IC50 was 5.01 to 1000 nM.

With `NC(=O)c1cc(-c2nccs2)cc2c(C3CCS(=O)(=O)CC3)c[nH]c12` [Example 85, 3-(1,1-Dioxidotetrahydro-2H-thiopyran-4-yl)-5-(1,3-thiazol-2-yl)-1H-indole-7-carboxamide] as the compound, how does the IC50 read?
The IC50 was 5.01 to 1000 nM.

For `NC(=O)c1cc(-c2csc(CCCO)c2)cc2c(C3CCS(=O)(=O)CC3)c[nH]c12` [Example 84, 3-(1,1-Dioxidotetrahydro-2H-thiopyran-4-yl)-5-[5-(3-hydroxypropyl)-3-thienyl]-1H-indole-7-carboxamide], which IC50 is on record?
Its IC50 is 5.01 to 1000 nM.

`CNCc1cccc(-c2cc(C(N)=O)c3[nH]cc(C4CCS(=O)(=O)CC4)c3c2)c1` [Example 78, 3-(1,1-Dioxidotetrahydro-2H-thiopyran-4-yl)-5-{3-[(methylamino)methyl]phenyl}-1H-indole-7-carboxamide] was tested. Which IC50 did it give?
The IC50 was 5.01 to 1000 nM.

Which IC50 does the source give for `NC(=O)c1cc(-c2ccc3[nH]ncc3c2)cc2c(C3CCS(=O)(=O)CC3)c[nH]c12` [Example 82, 3-(1,1-Dioxidotetrahydro-2H-thiopyran-4-yl)-5-(1H-indazol-5-yl)-1H-indole-7-carboxamide] here?
Its IC50 is 5.01 to 1000 nM.

Which IC50 does the source give for `NC(=O)c1cc(-c2ccoc2)cc2c([C@H]3CCS(=O)(=O)[C@@H](c4ccccc4)C3)c[nH]c12` (racemic) [Example 250, 3-(1,1-Dioxido-2-cis-phenyltetrahydro-2H-thiopyran-4-yl)-5-(3-furanyl)-1H-indole-7-carboxamide] here?
The IC50 was 5.01 to 1000 nM.

With `NC(=O)c1cc(-c2ccc(S(=O)(=O)N3CCC3)s2)cc2c(C3CCS(=O)(=O)CC3)c[nH]c12` [Example 81, 5-[5-(1-Azetidinylsulfonyl)-2-thienyl]-3-(1,1-dioxidotetrahydro-2H-thiopyran-4-yl)-1H-indole-7-carboxamide] as the compound, how does the IC50 read?
Its IC50 is 5.01 to 1000 nM.

For `CC1(C)CC(c2c[nH]c3c(C(N)=O)cc(-c4ccsc4)cc23)CCS1(=O)=O` (stereo not drawn) [Example 227, 3-(2,2-Dimethyl-1,1-dioxidotetrahydro-2H-thiopyran-4-yl)-5-(3-thienyl)-1H-indole-7-carboxamide], which IC50 is on record?
Its IC50 is 5.01 to 1000 nM.

For `CCN(CC)Cc1cc(-c2cc(C(N)=O)c3[nH]cc(C4CCS(=O)(=O)CC4)c3c2)cs1` [Example 76, 5-{5-[(diethylamino)methyl]-3-thienyl}-3-(1,1-dioxidotetrahydro-2H-thiopyran-4-yl)-1H-indole-7-carboxamide], which IC50 is on record?
The IC50 was 5.01 to 1000 nM.

How did the IC50 turn out when `CC(C)[C@@H]1C[C@H](c2c[nH]c3c(C(N)=O)cc(-c4ccsc4)cc23)CCS1(=O)=O` (racemic) [Example 246, (racemic)-3-[cis-2-(1-Methylethyl)-1,1-dioxidotetrahydro-2H-thiopyran-4-yl]-5-(3-thienyl)-1H-indole-7-carboxamide] was run?
Its IC50 is 5.01 to 1000 nM.

For `COC(=O)c1cc(-c2ccc(F)cc2)cc2c([C@@H]3CCSC3)c[nH]c12` [Example 172, Methyl 5-(4-fluorophenyl)-3-[(3S)-tetrahydro-3-thienyl]-1H-indole-7-carboxylate], which IC50 is on record?
The IC50 was 5.01 to 1000 nM.

`CC1(C)CC(c2c[nH]c3c(C(N)=O)cc(-c4csc(CN5CCCCCC5)c4)cc23)CCS1(=O)=O` (stereo not drawn) [Example 231, 3-(2,2-Dimethyl-1,1-dioxidotetrahydro-2H-thiopyran-4-yl)-5-[5-(hexahydro-1H-azepin-1-ylmethyl)-3-thienyl]-1H-indole-7-carboxamide] was tested. Which inhibition at 0.3 µM did it give?
The inhibition at 0.3 µM was 0 to 100%.

Which IC50 does the source give for `NC(=O)c1cc(-c2ccc3sccc3c2)cc2c(C3CCS(=O)(=O)C3)c[nH]c12` (stereo not drawn) [Example 191, 5-(1-Benzothien-5-yl)-3-(1,1-dioxidotetrahydro-3-thienyl)-1H-indole-7-carboxamide] here?
Its IC50 is 5.01 to 1000 nM.

With `NC(=O)c1cc(-c2ccnc(Cl)c2)cc2c(C3CCS(=O)(=O)CC3)c[nH]c12` [Example 68, 5-(2-Chloro-4-pyridinyl)-3-(1,1-dioxidotetrahydro-2H-thiopyran-4-yl)-1H-indole-7-carboxamide] as the compound, how does the IC50 read?
The IC50 was 5.01 to 1000 nM.

For `CN(C)Cc1cc(-c2cc(C(N)=O)c3[nH]cc(CC4CCS(=O)(=O)C4)c3c2)cs1` (stereo not drawn) [Example 261, 5-{5-[(Dimethylamino)methyl]-3-thienyl}-3-[(1,1-dioxidotetrahydro-3-thienyl)methyl]-1H-indole-7-carboxamide], which IC50 is on record?
The IC50 was 5.01 to 1000 nM.

`NC(=O)c1cc(-c2ccsc2)cc2c(C3CCCS(=O)(=O)C3)c[nH]c12` (stereo not drawn) [Example 219, 3-(1,1-Dioxidotetrahydro-2H-thiopyran-3-yl)-5-(3-thienyl)-1H-indole-7-carboxamide] was tested. Which IC50 did it give?
The IC50 was 5.01 to 1000 nM.

How did the IC50 turn out when `CN(C)Cc1cccc(-c2cc(C(N)=O)c3[nH]cc(C4CCS(=O)(=O)CC4)c3c2)c1` [Example 79] was run?
The IC50 was 5.01 to 1000 nM.

`CC(C)[C@H]1C[C@H](c2c[nH]c3c(C(N)=O)cc(-c4cccs4)cc23)CCS1(=O)=O` (racemic) [Example 245, (racemic)-3-[trans-2-(1-Methylethyl)-1,1-dioxidotetrahydro-2H-thiopyran-4-yl]-5-(2-thienyl)-1H-indole-7-carboxamide] was tested. Which IC50 did it give?
The IC50 was 5.01 to 1000 nM.

How did the IC50 turn out when `NC(=O)c1cc(-c2csc(CN3CCC3)c2)cc2c(C3CCS(=O)(=O)C3)c[nH]c12` (stereo not drawn) [Example 185, 5-[5-(1-Azetidinylmethyl)-3-thienyl]-3-(1,1-dioxidotetrahydro-3-thienyl)-1H-indole-7-carboxamide] was run?
The IC50 was 5.01 to 1000 nM.

`COC(=O)c1cc(-c2ccc(F)cc2)cc2c([C@H]3CCSC3)c[nH]c12` [Example 173, methyl 5-(4-fluorophenyl)-3-[(3R)-tetrahydro-3-thienyl]-1H-indole-7-carboxylate] was tested. Which IC50 did it give?
Its IC50 is 5.01 to 1000 nM.

Which IC50 does the source give for `NC(=O)c1cc(-c2csc(CN3CCCC3)c2)cc2c(C3CCS(=O)(=O)C3)c[nH]c12` (stereo not drawn) [Example 187, 3-(1,1-Dioxidotetrahydro-3-thienyl)-5-[5-(1-pyrrolidinylmethyl)-3-thienyl]-1H-indole-7-carboxamide] here?
Its IC50 is 5.01 to 1000 nM.

How did the IC50 turn out when `NC(=O)c1cc(-c2ccccc2)cc2c(C3CCCS(=O)(=O)CC3)c[nH]c12` (stereo not drawn) [Example 212, 3-(1,1-Dioxido-4-thiepanyl)-5-phenyl-1H-indole-7-carboxamide] was run?
The IC50 was 5.01 to 1000 nM.
